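The compound was tested at five concentrations on cells cultured in 96-well plates, with a 48-hour exposure period. Here, GI50 denotes the concentration required for 50% inhibition of growth. TGI: concentration producing complete growth inhibition.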

Common to all, as to test: NCI tumour cell line growth inhibition, 48 h
The test system of experiment [1] is HCT-116 colon.
Experiment [2] concerns UO-31 renal.
The subject of experiment [3] is PC-3 prostate.
The subject of experiment [4] is LOX IMVI melanoma.
The test system of experiment [5] is SK-MEL-5 melanoma.
Experiment [6] relates to UACC-62 melanoma.
For experiment [7], the system named is A498 renal.
Experiment [8] relates to MALME-3M melanoma.
Experiment [9] relates to OVCAR-3 ovarian.
Experiment [10] relates to HS 578T breast.

Take `O=C(O)C1OC(n2cc(F)c(=O)[nH]c2=O)CC1O` (stereo not drawn): the TGI is more than 100 µM in experiment [1]; more than 100 µM in experiment [2]; more than 100 µM in [3]; more than 100 µM in experiment [4]; more than 100 µM in experiment [5]; more than 80.5 µM in experiment [6]. For the same molecule, the TGI in experiment [7], in experiment [8], in experiment [9] and in [10] was more than 100 µM throughout.
Regarding `CN1c2ccc(Cl)cc2C(=O)NC1c1ccc([N+](=O)[O-])s1` (stereo not drawn), the TGI in experiment [1] was 29 µM; in experiment [2] it was 26.5 µM; in experiment [3] it was 36.1 µM; in experiment [4], 28.8 µM; in experiment [5], 31.6 µM; in experiment [6], 26.3 µM. Besides, the TGI in experiment [7] is 32.8 µM; in [9], 31.4 µM; in experiment [10], 34.2 µM.
In the case of `CCOC(=O)c1c(C)n(Cc2ccc(Cl)cc2Cl)c2c1c(CN(C)C)c(O)c1[nH]cnc12`, the GI50 in experiment [1] is 19 µM; in [2] it was 18.9 µM; in [4] it was 15.7 µM; in experiment [5], 17.2 µM; in experiment [7], 20 µM; in experiment [8] it was 21.2 µM. Besides, the GI50 in [9] is 17.3 µM; in experiment [10] it was 29.1 µM. For the same molecule, the TGI came to 33 µM in [1]; 36.5 µM in experiment [2]; 29.1 µM in experiment [4]; 30.9 µM in experiment [5]; 35 µM in [7]; 42.9 µM in experiment [8]. Further, the TGI in [9] stood at 33.5 µM; in experiment [10] it was 81.8 µM.
In the case of `C=C1C(=O)O[C@H]2[C@H]1CC/C(COC(=O)C(=O)c1cn(Cc3ccccc3)c3ccccc13)=C\CC[C@@]1(C)O[C@@H]21`, the GI50 is 1.62 µM in experiment [1]; 1.61 µM in experiment [2]; 2.14 µM in [3]; 1.21 µM in [4]; 1.99 µM in [5]; 1.8 µM in experiment [6]. Besides, the GI50 in [7] was 18.5 µM; in [8] it was 2.08 µM; in experiment [9], 2.18 µM; in [10], 3.35 µM. In addition, the TGI in experiment [1] worked out at 3.36 µM; in [2], 3.1 µM; in experiment [3], 4.35 µM; in experiment [4], 2.57 µM; in experiment [5], 4.1 µM; in [6], 4.42 µM. Also, the TGI in experiment [7] is 35.2 µM; in [8], 4.39 µM; in experiment [9], 5.65 µM; in [10], 29.9 µM.
As for `N#C/C(=C1C=C(Br)/C(=N\O)C=C\1Cl)c1cccc2ccccc12`, the TGI in experiment [1] was 15.6 µM; in experiment [2] it was 24.1 µM; in [3] it was 10.9 µM; in experiment [4] it was more than 100 µM; in [5], 13.4 µM; in [6] it was 15.8 µM. Moreover, the TGI in experiment [7] was found to be 21.5 µM; in [8] it was 21.4 µM; in [9], 9.39 µM; in [10], 17.5 µM.
Turning to `COc1cc(-c2ccc3c(c2)NC(=O)/C3=C\c2ccc[nH]2)ccc1O`, the GI50 in experiment [1] was 0.0228 µM; in experiment [2], 0.0354 µM; in [3] it was 0.0228 µM; in [4], 0.0353 µM; in [5] it was 0.0368 µM; in [6], 0.1 µM. In addition, the GI50 was 2.09 µM in [7], 2.65 µM in [8], 0.0176 µM in [9] and 0.026 µM in experiment [10]. Besides, the TGI in [1] is more than 50 µM; in experiment [2], more than 50 µM; in [3], more than 50 µM; in experiment [4], more than 50 µM; in [5], 1.69 µM; in experiment [6], more than 50 µM. The TGI in experiment [7] was 39.2 µM; in experiment [8] it was more than 50 µM; in [9] it was more than 50 µM; in [10], more than 50 µM.
As to `COc1ccc(-c2n[nH]nc2-c2cc(OC)c(OC)c(OC)c2)cc1`, the GI50 in [1] was less than 0.01 µM; in [2], 0.207 µM; in [3] it was 0.0638 µM; in experiment [4] it was less than 0.01 µM; in experiment [5] it was less than 0.01 µM; in experiment [6], less than 0.01 µM. Moreover, the GI50 in experiment [7], in [9] and in experiment [10] was less than 0.01 µM each time. In addition, the TGI was more than 100 µM in experiment [1]; 28 µM in [2]; more than 100 µM in [3]; more than 57 µM in experiment [4]; 0.0224 µM in [5]; 24.6 µM in [6]. Moreover, the figures for the TGI in [7], in experiment [9] and in experiment [10] were less than 0.0277 µM, less than 0.01 µM and more than 83.9 µM, respectively.
Consider `Cc1cccc(N2CCN(C(=S)c3ccc4c(c3)OCO4)CC2)c1`, for which the GI50 in [1] was 0.513 µM; in [2], 14.4 µM; in [3] it was 4.14 µM; in experiment [4], 1.88 µM; in experiment [5], 0.437 µM; in experiment [6] it was 0.64 µM. The figures for the GI50 in experiment [7], in experiment [9] and in experiment [10] were 0.799 µM, 0.359 µM and 0.501 µM, respectively. Moreover, the TGI is more than 100 µM in experiment [1]; more than 100 µM in experiment [2]; more than 100 µM in experiment [3]; more than 100 µM in experiment [4]; 35.1 µM in [5]; more than 100 µM in [6]. In addition, the TGI in experiment [7] worked out at 67.9 µM; in [9], 2.87 µM; in [10], 5.58 µM.
As for `COc1cc2c3c(n(CCCNC(=O)OCC4c5ccccc5-c5ccccc54)c(=O)c2cc1OC)-c1cc2c(cc1/C3=C\CCNC(=O)OCC1c3ccccc3-c3ccccc31)OCO2`, the TGI is more than 12.9 µM in [1]; more than 50 µM in experiment [2]; more than 50 µM in experiment [3]; more than 50 µM in [4]; more than 50 µM in experiment [5]; more than 36 µM in [6]. For the same molecule, the TGI is more than 50 µM in experiment [8], more than 50 µM in experiment [9] and 10.2 µM in [10]. Further, the GI50 in [2] is more than 50 µM; in experiment [3], more than 50 µM; in experiment [4], more than 22.5 µM; in experiment [5] it was more than 50 µM; in experiment [6], more than 21.6 µM; in experiment [8] it was 45.5 µM. The GI50 in experiment [9] is more than 44.6 µM; in experiment [10] it was 1.29 µM.
